Assay results: patent US8173441B2, “Method for applying NMR for ligand discovery or as a drug screening tool” (Universiteit Leiden, priority 2001, dated 2012)
Entries after “also recorded” stand apart in the source; their conditions may differ.

Key:
[1] = target: T1, C-terminal SH2 domain (CSH2) from the 85 kDa, alpha form of the regulatory subunit of bovine phosphoinositide 3′ kinase (Bos taurus, UniProt P23727); assay: Target immobilized NMR screening (TINS): 1H-NMR difference spectrum, control resin vs resin with CSH2 covalently bound; type: binding; settings: 1 mM each compound in D2O, d11-Tris pH 7.5, 50 mM NaCl, CSH2 on Actigel ALD resin
T1 construct: the c-terminal SH2 domain of p85alpha was prepared as previously described by Siegal et al; made in house
Text: In this example, it was aimed to investigate whether binding of a small molecule to a target bound to the resin would be detectable in the ^1H spectrum. The test system utilized the C-terminal SH2 domain (CSH2) from the 85 kDa, alpha form of the regulatory subunit of bovine phosphoinositide 3′ kinase. This small (110 residues) protein domain has well characterized binding specificity.
To see whether the method of the present invention provides a mode appropriate for efficient screening of a large library of compounds, CSH2 was immobilized on a chemically activated chromatography resin of Actigel ALD by covalent attachment. Attachment occurs via primary amines on the surface of CSH2 as described in the manufacturers literature and therefore is (approximately) randomly oriented.
In detail, the c-terminal SH2 domain of p85alpha was prepared as previously described by Siegal et al. in J. Mol. Biol. 276(1998), 461-478. 11 mg of this domain CSH2 in a buffer consisting of 25 mM HEPES pH 7.5 and 100 mM NaCl was incubated with 1 ml of Actigel ALD (Sterogene, Carlsbad, Calif., USA) according to the manufacturers protocol. This amount corresponds to a 1 mM solution concentration. Unbound sites on the gel were blocked using d11-Tris (Cambridge Isotopes, Andover, Mass., USA). The control resin was derivatized exclusively with d11-Tris.
The potential ligands were dissolved in 99% D2O with d11-Tris.
In all cases, the control and experimental target containing resins were washed three times with the same mixture of test substances.
All NMR spectra were recorded on a Bruker (Bruker, Germany) DMX 600 spectrometer. Spectra typically consisted of 16 to 64 transients of 2 k complex points, were apodized using a sin^2 function and automatically baseline corrected using the supplied XWINNMR software provided by the manufacturer, Bruker, and methods described in the manufacturers literature. Difference spectra were also calculated using XWINNMR

[2] = tested on: 26 base synthetic double stranded 5′ biotinylated oligonucleotide (DNA); assay: TINS: 1H-NMR difference spectrum, streptavidin-sepharose resin vs resin with biotinylated oligonucleotide bound; type: binding; settings: 1 mM solution in D2O; oligonucleotide on streptavidin-sepharose resin
SH2 domain (CSH2) = SH2 domain (CSH2) (Bos taurus, UniProt P23727); settings: mimic of the natural ligand; cited from earlier work
Chain of SH2 domain (CSH2) (P23727 624-718 limits assumed): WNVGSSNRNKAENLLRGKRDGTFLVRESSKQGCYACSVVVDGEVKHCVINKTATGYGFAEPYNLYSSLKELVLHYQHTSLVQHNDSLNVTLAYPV

T1 sequence (P23727 624-718 limits assumed): as above

Compound	binding to immobilized CSH2 (diminution of peaks / peaks in the difference spectrum) [1]	binding to immobilized oligonucleotide (peaks in the difference spectrum) [2]	further results
N=C(N)NCCC[C@H](N)C(=O)O [arginine]	do not bind	do not bind	–
c1c[nH]cn1 [imidazole, Imidazole]	–	do not bind	–
CSCC[C@H](N)C(=O)O [methionine]	–	–	binding to immobilized CSH2 (diminution of peaks / peaks in the difference spectrum) ([1]; listed as M): small residual peaks; also recorded: Weak binding
NCCCNCCCCNCCCN [spermine]	–	Only peaks derived from spermine; also recorded: can be detected; also recorded: only spermine peaks remain	–

The next lines start with results.

binding to immobilized CSH2 (diminution of peaks / peaks in the difference spectrum) [1]	Compound	binding to immobilized oligonucleotide (peaks in the difference spectrum) [2]	further results
do not bind	NCC(=O)O [glycine]	–	–
only peaks derived from phosphotyrosine	N[C@@H](Cc1ccc(OP(=O)(O)O)cc1)C(=O)O [phosphotyrosine]	do not bind	binding to immobilized CSH2 (diminution of peaks / peaks in the difference spectrum) ([1]; listed as pY): clear diminution of the peaks; also recorded: relatively tight binding; Kd (SH2 domain (CSH2)): ~600 µM
